Reference: US9320809B2, “Nanoparticle comprising hydrophobic drug conjugated to cationic polymer and hydrophilic drug conjugated to anionic polymer” (University-Industry Foundation, Yonsei University, priority 2014, dated 2016)

Test system: Bax, Bcl-2, Bcl-xL mRNA in HuCCT1 and SCK cells
Assay: Expression level of apoptosis-related genes (real-time PCR)
Assay type: cell-based
Conditions: same amount of drugs; for change of apoptosis gene expression according to the level of expression of CD44: HuCCT1 versus SCK
Method: The level of expression of an apoptosis gene of each material was compared and analyzed under the same condition as Experimental Example 4.
Specifically, 1×10^6 HuCCT1 and SCK cells were treated with GEM, PTX, GEM+PTX, HA-GEM, PLL-PTX, HA-GEM, and MDNCs for 4 hours based on the same amount of GEM and PTX. Then, the cells were incubated in a new medium for 24 hours, and thereby the cells were obtained. Total amount of RNA with respect to all the obtained cells was obtained with an RNeasy plus mini kit (QIAGEN Gmbh), and then a concentration of total RNA was obtained using a biophotometer. Thereafter, 2 μg of complementary DNA (cDNA) with respect to the total RNA was synthesized through a high capacity RNA-to-cDNA kit (Applied Biosystems; Thermo Fisher Scientific Inc.). Quantitative analysis of the synthesized cDNA was performed using a QuantiMix SYBR Kit (PKT, Korea) in a real-time PCR system (LightCycler 480 System, HNS Bio). The quantitative analysis was performed through a reacting solution (20 μl) including cDNA (1 μl), SYBR Green mixture (10 μl), each of forward primer (1 μl) and reverse primer (1 μl), and DEPC water (7 μl). The used primers were as follows: […]
PCR was performed at 95° C. for 5 minutes, and then genes were amplified for 45 cycles (10 seconds at 95° C., 10 seconds at 60° C., and 10 seconds at 72° C.). A relative amount of each mRNA was analyzed using a Ct method (2-ΔΔCt) based on GAPDH of each cell, from data obtained as described above.

Which results are given for Nc1ccn([C@@H]2O[C@H](CO)[C@@H](O)C2(F)F)c(=O)n1 [GEM, gemcitabine]?
change of apoptosis gene expression according to the level of expression of CD44: few changes; effects on apoptosis gene expression compared with MDNCs: lower than those of the MDNCs

What does the source list for CC(=O)O[C@H]1C(=O)[C@@]2(C)[C@H]([C@H](OC(=O)c3ccccc3)[C@]3(O)C[C@H](OC(=O)[C@H](O)[C@@H](NC(=O)c4ccccc4)c4ccccc4)C(C)=C1C3(C)C)[C@]1(OC(C)=O)CO[C@@H]1C[C@@H]2O [PTX, paclitaxel]?
change of apoptosis gene expression according to the level of expression of CD44: few changes; effects on apoptosis gene expression compared with MDNCs: lower than those of the MDNCs
